Patent publication US6106844A, “Immunomodulatory peptides of vespid antigen 5” (The Rockfeller University, priority 1998, dated 2000)

What was measured:
Assay type in all cases: cell-based
[1] = system: r-Ag5 specific spleen cells from C3H/He mice; assay: In vitro proliferation assay, spleen cells of r-Ag5-immunized C3H/He mice; details: spleen cells from mice immunized 5 times with rAg5; blank 3130 cpm
Procedure: FIG. 13. Stimulation index profile of C3H/He mice spleens after 5 immunizations with r-Ag5. In vitro proliferation assays were performed with peptides at three concentrations: 1×10^-5 M (open bar), 1.25×10^-6 M ("uphill" hatch), and 1.56×10^-7 M ("downhill" hatch). The corresponding concentrations of recombinant Antigen 5 were 1.0×10^-6 M, 1.25×10^-7, and 1.56×10^-8 M. The blank was 3130 cpm.
(§1) The peptides of the invention can be tested in a proliferation assay for T cell responses. Generally, lymphocytes from a sensitized host are obtained. The host can be a mouse that has been immunized with a vespid venom antigen 5, or with a crossreactive protein, such as testes specific protein. Using techniques that are well known in the art, T lymphocyte response to the peptide can be measured in vitro. In a specific embodiment, infra, T cell responses are detected by measuring incorporation of ^3 H-thymidine, which increases with DNA synthesis associated with proliferation. Cell proliferation can also be detected using an MTT assay [Mossman, J. Immunol. Methods, 65:55-63,(1983); Niks and Otto, J. Immunol. Methods, 130:140-151 (1990)]. […] Alternatively, mRNA for lymphokines can be detected, e.g., by amplification [see Brenner, et al., Biotechniques, 7:1096 (1989)] or in situ hybridization [see, e.g., Kasaian and Biron, J. Immunol., 142:1287 (1989)]. […]

[2] = system: Ag5 specific spleen cells from BALB/c mice; assay: In vitro proliferation assay, spleen cells of Ag5-immunized BALB/c mice; details: for Stimulation Index BALB/c: spleen cells from mice immunized with rAg5, blank 3970 cpm
Procedure: FIG. 4. Stimulation index profile of BALB/c mice spleens after 4 immunizations with natural (n)-Ag5. In vitro proliferation assays were performed with peptides at three concentrations: 1×10^-5 M (open bar), 1.25×10^-6 M ("uphill" hatch), and 1.56×10^-7 M ("downhill" hatch). The corresponding concentrations of recombinant antigen 5 control were 1.0×10^-6 M, 1.25×10^-7, and 1.56×10^-8 M. The blank was 2200 cpm.
FIG. 5. Stimulation index profile of BALB/c mice spleens after 4 immunizations with recombinant (r)-Ag5. In vitro proliferation assays were performed with peptides at three concentrations: 1×10^-5 M (open bar), 1.25×10^-6 M ("uphill" hatch), and 1.56×10^-7 M ("downhill" hatch). The corresponding concentrations of recombinant Antigen 5 were 1.0×10^-6 M, 1.25×10^-7, and 1.56×10^-8 M. The blank was 4700 cpm.
FIG. 6. […] In vitro proliferation assays were performed with peptides at three concentrations: 1×10^-5 M (open bar), 1.25×10^-6 M ("uphill" hatch), and 1.56×10^-7 M ("downhill" hatch). The corresponding concentrations of recombinant Antigen 5 were 1.0×10^-6 M, 1.25×10^-7, and 1.56×10^-8 M. […]
(§2) The peptides of the invention can be tested in a proliferation assay for T cell responses. Generally, lymphocytes from a sensitized host are obtained. The host can be a mouse that has been immunized with a vespid venom antigen 5, or with a crossreactive protein, such as testes specific protein. Using techniques that are well known in the art, T lymphocyte response to the peptide can be measured in vitro. In a specific embodiment, infra, T cell responses are detected by measuring incorporation of ^3 H-thymidine, which increases with DNA synthesis associated with proliferation. Cell proliferation can also be detected using an MTT assay [Mossman, J. Immunol. Methods, 65:55-63,(1983); Niks and Otto, J. Immunol. Methods, 130:140-151 (1990)]. Alternatively, lymphokine production assays can be practiced according to the present invention. In one embodiment, lymphokine production can be assayed using immunological or co-stimulation assays [see, e.g., Fehlner et al., J. Immunol., 146:799 (1991)] or using the ELISPOT technique [Czerkinsky, et al., J. Immunol. Methods, 110:29 (1988)]. Alternatively, mRNA for lymphokines can be detected, e.g., by amplification [see Brenner, et al., Biotechniques, 7:1096 (1989)] or in situ hybridization [see, e.g., Kasaian and Biron, J. Immunol., 142:1287 (1989)]. Of particular interest are those individuals whose T cells produce lymphokines associated with IgE isotype switch events, e.g., IL-4 and IL-5 [Purkeson and Isakson, J. Exp. Med., 175:973-982 (1992)]. Also of interest are the peptide fragments of the vespid venom antigen 5 that contain epitopes recognized by T cells involved in IgE switch events. […]

[3] = system: r-Ag5 specific spleen cells from mice of different strains; assay: Summary of proliferation indices across mouse strains; details: four strains BALB/c, ASW/Sn, C3H/He, P/J, C57B1/6 excluded
Excerpt: Summary of proliferation indices of r-Ag5 specific spleen
cells from mice of different strains on stimulation with the
dominant T cell epitope peptides^1
^1 Dominant T cell epitopes are defined as those peptides which showe
stimulation indices of ≥4 in at least one of 5 strains of mice
The present Example defines indices of 4 or greater for proliferation of Ag5- specific cells as containing a T cell epitope of Ag5. With this definition, the data in FIGS. 3-13 for mice of 5 strains with different haplotypes would indicate that the T cell epitopes of Ag5 are distributed throughout the entire molecule. As C57B1/6 mice is a poor responder, its data are excluded in the following comparison.
The data in Table 4 indicate that 14 peptides contain T cell epitopes of Ag5. Three of these peptides are recognized by three of the four strains tested, five of them by two strains and the remaining six by only one strain. […] They are peptides 1, 2, 5, 6, 9, 15, 20 and 18. […] This is particularly apparent for peptides 6, 20, and 18.

[4] = system: r-Ag5 specific spleen cells from C57B1/6 mice; assay: In vitro proliferation assay, spleen cells of r-Ag5-immunized C57B1/6 mice; details: spleen cells from mice immunized 5 times with rAg5; blank 1050 cpm
Procedure: FIG. 14. Stimulation index profile of CS7B1/6 mice spleens after 5 immunizations with r-Ag5. In vitro proliferation assays were performed with peptides at three concentrations: 1×10^-5 M (open bar), 1.25×10^-6 M ("uphill" hatch), and 1.56×10 ^-7 M ("downhill" hatch). The corresponding concentrations of recombinant Antigen 5 were 1.0×10^-6 M, 1.25×10^-7, and 1.56×10^-8 M. The blank was 1050 cpm.
as §1

[5] = system: r-Ag5 specific spleen cells from ASW/Sn mice; assay: In vitro proliferation assay, spleen cells of r-Ag5-immunized ASW/Sn mice; details: spleen cells from mice immunized 5 times with rAg5; blank 5640 cpm
Procedure: FIG. 11. Stimulation index profile of ASW/sn mice spleens after 5 immunizations with r-Ag5. In vitro proliferation assays were performed with peptides at three concentrations: 1×10^-5 M (open bar), 1.25×10^-6 M ("uphill" hatch), and 1.56×10^-7 M ("downhill" hatch). The corresponding concentrations of recombinant Antigen 5 were 1.0×10^-6 M, 1.25×10^-7, and 1.56×10^-8 M. The blank was 5640 cpm.
as §2

[6] = system: Tpx-C primed spleen cells from BALB/c mice; assay: In vitro proliferation assay, Tpx-C primed spleen cells; details: BALB/c mice after 4 immunizations with r-fragment Tpx-C (residue 101-163)
Procedure: FIG. 16. Stimulation index profile of BALB/c mice spleen cells after 4 immunizations with Tpx-C. Stimulation was tested with peptide or protein at three different concentrations: Open bars--1×10^-5 M peptide, 5×10^-6 M Frag C or Tpx-C; "uphill" hatch--1.25×10^-6 M peptide; 6.25×10^-7 M Frag C or Tpx-C; "downhill" hatch--1.56×10^-7 M peptide, 7.8×10^-8 M Frag C, Tpx-C: and stippled--9.75×10^-9 M Frag-C or Tpx-C. The blank was 5110 cpm.
as §2

[7] = system: Tpx-N primed spleen cells from BALB/c mice; assay: In vitro proliferation assay, Tpx-N primed spleen cells; details: BALB/c mice after 4 immunizations with r-fragment Tpx-N (residue 14-106)
Procedure: FIG. 15. Stimulation index profile of BALB/c mice spleen cells after 4 immunizations with Tpx-N. Stimulation was tested with peptide or protein at three different concentrations: Open bars--1.0×10^-5 M peptide or Frag IN, 2.5×10^-6 M Tp X-N; "uphill" hatch--1.25×10^-6 M peptide or Frag IN. 3.13×10^-7 M, Tpx-N; "downhill" hatch--1.5×10^-7 M peptide and Frag IN, 3.91×10^-8 M Tpx-N; and stippled --1.96×10^-8 M Frag IN, 4.89×10^-9 M Tpx-N. The blank was 7270 cpm.
as §2, with “(1992)].” for “(1992)]. Also of interest are the peptide fragments of the vespid venom antigen 5 that contain epitopes recognized by T cells involved in IgE switch events.”

Molecule | Stimulation Index BALB/c [2] | recognition by more than one mouse strain (stimulation indices of ≥4) [3] | Stimulation Index C57B1/6 [4] | Stimulation Index ASW/Sn [5] | stimulation indices, Tpx-C primed spleen cells (FIG. 16) [6] | stimulation indices, Tpx-N primed spleen cells (FIG. 15) [7] | other results
NNYCKIKCRKGIHTLCKFGT [Peptide 1, white face hornet antigen 5 form 2, residue 1-20] | 8.6 | recognized by two or three strains of mice | 2.5 | 1.9 |  |  | Stimulation Index C3H/He [1]: 2.4; stimulation indices (FIG. 4-6 together) ([2]; BALB/c mice immunized 4 times with n-Ag5 or with r-Ag5): ≥ 4; recognition by more than one mouse strain (stimulation indices of ≥4) ([3]; listed as SEQ ID NO:8): dominant in more than one strain of mouse
GIHTLCKFGTSMKPNCGRNV [Peptide 2, white face hornet antigen 5 form 2, residue 11-30] | 2.9 | recognized by two or three strains of mice | 1.9 | 2.2 |  |  | recognition by more than one mouse strain (stimulation indices of ≥4) ([3]; listed as SEQ ID NO:9): dominant in more than one strain of mouse
fragment C: recombinant C-terminal fragment of hornet antigen 5, residue 151-204 (NPKKGTMGDNNFSKVGHYTQMVWGKTKEIGCGSVKYIENNWHTHYLVCNYGPAG) |  |  |  |  | 9 |  | stimulation indices, Tpx-C primed spleen cells (FIG. 16) ([6]; listed as r-fragment C): responded equally well
Tpx-C: recombinant fragment of mouse testis protein Tpx, residue 101-163 (protein) MSTDPTLWSTVIQSWYNENEDFVYGVGAKPNSAVGHYTQLVWYSSFKIGCGIAYCPNQDNLKY |  |  |  |  | greater than 15 |  | 
Tpx-N: recombinant fragment of mouse testis protein Tpx, residue 14-106 (protein) LLRSPLTEGKDPDFTSLLTNQLQVQREIVNKHNELRRSVNPTGSDILKMEWSIQATTNAQKWANKCILEHSSKDDRKINIRCGENLYMSTDPT |  |  |  |  |  | greater than 6 | 
fragment IN: recombinant N-terminal fragment of hornet antigen 5, residue 1-114 (protein) PIINLSFGEANNYCKIKCSRGIHTLCKFGTSMKPNCGSKLVKVHGVSNDEKNEIVNRHNQFRQKVAKGLETRGNPGPQPPAKNMNVLVWNDELAKIAQTWANQCSFGHDQCRNT |  |  |  |  |  | greater than 6 | stimulation indices, Tpx-N primed spleen cells (FIG. 15) ([7]; listed as r-fragment IN): responded equally well
